The test deals with T1, Inositol polyphosphate-5-phosphatase A (Homo sapiens, UniProt Q14642).
T1 sequence (Q14642 whole entry): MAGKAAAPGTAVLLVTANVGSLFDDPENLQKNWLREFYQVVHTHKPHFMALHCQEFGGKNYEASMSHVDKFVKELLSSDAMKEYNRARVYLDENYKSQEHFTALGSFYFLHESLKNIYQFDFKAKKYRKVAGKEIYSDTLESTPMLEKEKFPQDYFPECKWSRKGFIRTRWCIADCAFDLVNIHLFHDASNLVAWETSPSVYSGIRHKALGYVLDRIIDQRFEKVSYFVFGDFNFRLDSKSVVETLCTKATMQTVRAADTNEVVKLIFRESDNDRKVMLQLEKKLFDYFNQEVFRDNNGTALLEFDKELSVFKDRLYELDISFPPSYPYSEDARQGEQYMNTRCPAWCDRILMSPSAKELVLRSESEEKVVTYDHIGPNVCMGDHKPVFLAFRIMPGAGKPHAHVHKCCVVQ
The test is described as follows: The compound was evaluated for inhibition of Inositol-1,4,5-trisphosphate 5-phosphatase.

For `O=P(O)(O)OC1C(O)C(O)C(OP(O)(O)=S)C(OP(O)(O)=S)C1O` (stereo unspecified), the Ki (commonly a dissociation constant, usually derived from enzyme kinetics or from competition with a known ligand) is 1300 nM.

Values taken from ChEMBL document CHEMBL1126421, “Total synthesis of myo-inositol-1-phosphate-4,5-pyrophosphate, a novel second messenger analogue, via myo-inositol-1-phosphate-4,5-bisphosphorothioate” (Bioorg Med Chem Lett, 1992).
